# From patent publication US4950663A, “Antihypertensive composition” (priority 1989, dated 1990)
# Entries after “also recorded” stand apart in the source; their conditions may differ. Counter-ions that a name gives are not always drawn.
# Assays:
# [1] = Comparative cardiovascular effects (heart rate, mean arterial pressure, coronary blood flow) after intravenous dosing in anesthetized dogs; assay type: in vivo; details: for effect on heart rate (in words): M2 at 1600 μg/kg, diltiazem at 400 μg/kg; for reduction in heart rate: M2 at a dosage 4 times greater than diltiazem
# [2] = dogs; test of dose required to cause a 50% increase in blood flow; cited from earlier work
# [3] = Elimination and metabolism; assay type: in vivo
# [4] = Side effects; assay type: in vivo; details: compositions
# [5] = Liposolubility; assay type: physicochemical
# [6] = anesthetized dogs, 50 μg/kg intravenous, value at 0 μg/kg: D 59, M2 49
# [7] = anesthetized dogs, 50 μg/kg intravenous, value at 0 μg/kg: D 99, M2 99
# [8] = anesthetized dogs, 200 μg/kg intravenous, value at 0 μg/kg: D 59, M2 49
# [9] = anesthetized dogs, 200 μg/kg intravenous, value at 0 μg/kg: D 99, M2 99
# [10] = anesthetized dogs, 200 μg/kg intravenous, value at 0 μg/kg: D 130, M2 127
structure (smiles),measurement,setting,value
"COc1ccc([C@@H]2Sc3ccccc3N(CCN(C)C)C(=O)[C@@H]2OC(C)=O)cc1 [Diltiazem, (+)-cis-3-(acetyloxy)-5-[2-dimethylamino-ethyl]-2,3-dihydro-2-(4-methoxyphenyl)-l,5-benzothiaz epin-4(5H)one monohydrochloride, reference compound]",Coronary blood flow,"[1]; anesthetized dogs, 15 μg/kg intravenous, value at 0 μg/kg: D 59",67 mL/min
same,Mean arterial pressure,"[1]; anesthetized dogs, 15 μg/kg intravenous, value at 0 μg/kg: D 99",94 mm Hg
same,Coronary blood flow,[1]; [6],73 mL/min
same,Mean arterial pressure,[1]; [7],84 mm Hg
same,Coronary blood flow,[1]; [8],91 mL/min
same,Mean arterial pressure,[1]; [9],67 mm Hg
same,Heart rate,[1]; [10],122 beats/minute
same,Coronary blood flow,"[1]; anesthetized dogs, 400 μg/kg intravenous, value at 0 μg/kg: D 59",83 mL/min
same,Mean arterial pressure,"[1]; anesthetized dogs, 400 μg/kg intravenous, value at 0 μg/kg: D 99",58 mm Hg
same,Maximal reduction in mean arterial pressure,"[1]; anesthetized dogs, intravenous",-38%
same,increase in coronary blood flow,"[1]; anesthetized dogs, intravenous",> 50%
same,effect on heart rate (in words),"[1]; anesthetized dogs, intravenous",significant effect on the heart rate
same,reduction in heart rate,"[1]; anesthetized dogs, intravenous",> 20%
"CNCCN1C(=O)C(O)C(c2ccc(OC)cc2)Sc2ccccc21 (stereo not drawn) [M2, N-desmethyl, deacetyl diltiazem]",Coronary blood flow,[1]; [6],53 mL/min
same,Mean arterial pressure,[1]; [7],96 mm Hg
same,Heart rate,"[1]; anesthetized dogs, 50 μg/kg intravenous, value at 0 μg/kg: D 130, M2 127",127 beats/minute
same,Coronary blood flow,[1]; [8],55 mL/min
same,Mean arterial pressure,[1]; [9],88 mm Hg
same,Heart rate,[1]; [10],127 beats/minute
same,Coronary blood flow,"[1]; anesthetized dogs, 800 μg/kg intravenous, value at 0 μg/kg: M2 49",61 mL/min
same,Mean arterial pressure,"[1]; anesthetized dogs, 800 μg/kg intravenous, value at 0 μg/kg: M2 99",74 mm Hg
same,Heart rate,"[1]; anesthetized dogs, 800 μg/kg intravenous, value at 0 μg/kg: M2 127",125 beats/minute
same,Coronary blood flow,"[1]; anesthetized dogs, 1600 μg/kg intravenous, value at 0 μg/kg: M2 49",61 mL/min
same,Mean arterial pressure,"[1]; anesthetized dogs, 1600 μg/kg intravenous, value at 0 μg/kg: M2 99",63 mm Hg
same,Heart rate,"[1]; anesthetized dogs, 1600 μg/kg intravenous, value at 0 μg/kg: M2 127",119 beats/minute
same,Maximal reduction in mean arterial pressure,"[1]; anesthetized dogs, intravenous",-36%
same,coronary blood flow dilation relative to diltiazem,"[1]; anesthetized dogs, intravenous",about half that effect; also recorded: about half that of diltiazem
same,increase in coronary blood flow,"[1]; anesthetized dogs, intravenous",> 25%
same,peripheral dilation capacity relative to diltiazem,"[1]; anesthetized dogs, intravenous",equivalent peripheral dilation capacity
same,effect on heart rate (in words),"[1]; anesthetized dogs, intravenous",devoted of major effect upon heart rate
same,effect on heart rate (in words),"[1]; anesthetized dogs, intravenous, deacetyl diltiazem",only a slight effect on the heart rate
same,reduction in heart rate,"[1]; anesthetized dogs, intravenous",< 10%
same,serious cardiovascular adverse effects,"[1]; anesthetized dogs, maximal dosage 4 times greater than diltiazem",without serious cardiovascular adverse effects
same,effect on mean arterial pressure (in words),"[1]; anesthetized dogs, various intravenous dosages",decreases the mean arterial pressure
same,decrease in heart rate compared with diltiazem,[1]; compared with diltiazem,decrease the heart rate to a lesser degree than diltiazem
same,intravenous dosages suitable for use as a coronary dilator,[1]; intravenous,50 to 1600 µg/kg
same,intravenous dosages useful to decrease blood pressure or mean arterial pressure,[1]; intravenous,200 to 1600 µg/kg
same,effect on coronary blood flow relative to diltiazem,[2],20%
same,elimination half life compared with diltiazem,[3]; compared with diltiazem,shorter elimination half life
same,metabolism by the liver,[3]; in vivo,not metabolized extensively by the liver
same,side effects compared with diltiazem,[4],less side effects than diltiazem
same,liposolubility compared with diltiazem,[5],lower liposolubility than diltiazem
